These are literature values, as cited in patent US20090130200A1, “GRANULES FOR CONTROLLED RELEASE OF TAMSULOSIN” (SIEGFRIED GENERICS INTERNATIONAL AG, priority 2004, published 2009).

Where a name gives a salt, the structure may show the parent alone.

Regarding `CCOc1ccccc1OCCN[C@H](C)Cc1ccc(OC)c(S(N)(=O)=O)c1` [Tamsulosin hydrochloride], the solubility in water entry is on record as “only slightly soluble in water”.
